The values below come from PubChem BioAssay AID330 (DTP/NCI, 2004).

The test system of this test is P388 leukemia ip, CD2F1 mice, survival T/C. As to the kind of experiment: NCI In Vivo Anticancer Drug Screen. Data for tumor model P388 Leukemia (intraperitoneal) in CD2F1 (CDF1) mice. Particulars: endpoint: median survival time, higher = longer survival. The essentials:
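Mice carrying the transplanted tumor received test compound or vehicle. Survival was recorded in each group, and the value is the treated-group measurement divided by that of the vehicle-treated control group.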

[1] abbreviates: dose: 25.0 mg/kg/injection, schedule: Q01DX001 (ip), vehicle: Klucel (hydroxypropylcellulose) (HPC).
Setting [2] is: dose: 100.0 mg/kg/injection, schedule: Q01DX001 (ip), vehicle: Klucel (hydroxypropylcellulose) (HPC).
Where [3] appears, read: dose: 50.0 mg/kg/injection, schedule: Q01DX009 (ip), vehicle: saline with Tween-80.
The mark [4] stands for this setting: dose: 100.0 mg/kg/injection, schedule: Q01DX009 (ip), vehicle: saline with Tween-80.
Setting [5] is: dose: 200.0 mg/kg/injection, schedule: Q01DX009 (ip), vehicle: saline with Tween-80.
Setting [6] is: dose: 400.0 mg/kg/injection, schedule: Q01DX009 (ip), vehicle: saline with Tween-80.
Setting [7] is: dose: 50.0 mg/kg/injection, schedule: Q01DX009 (ip), vehicle: saline.
Setting [8] is: dose: 100.0 mg/kg/injection, schedule: Q01DX009 (ip), vehicle: saline.
Setting [9] is: dose: 200.0 mg/kg/injection, schedule: Q01DX009 (ip), vehicle: saline.
[10] abbreviates: dose: 6.25 mg/kg/injection, schedule: Q01DX009 (ip), vehicle: Klucel (hydroxypropylcellulose) (HPC).
[11] abbreviates: dose: 12.5 mg/kg/injection, schedule: Q01DX009 (ip), vehicle: Klucel (hydroxypropylcellulose) (HPC).
Setting [12] is: dose: 25.0 mg/kg/injection, schedule: Q01DX009 (ip), vehicle: Klucel (hydroxypropylcellulose) (HPC).
[13] abbreviates: dose: 50.0 mg/kg/injection, schedule: Q01DX005 (ip), vehicle: Klucel (hydroxypropylcellulose) (HPC).
The mark [14] stands for this setting: dose: 100.0 mg/kg/injection, schedule: Q01DX005 (ip), vehicle: Klucel (hydroxypropylcellulose) (HPC).
The mark [15] stands for this setting: dose: 200.0 mg/kg/injection, schedule: Q01DX005 (ip), vehicle: Klucel (hydroxypropylcellulose) (HPC).
The mark [16] stands for this setting: dose: 50.0 mg/kg/injection, schedule: Q01DX009 (ip), vehicle: Klucel (hydroxypropylcellulose) (HPC).

Each structure is given as a SMILES string. Values joined by “and” are separate entries in the source; they are usually repeats but may differ in a detail not shown here. Identical values can stand only once. Toxic doses and inconclusive results are not listed.

Take `CC1(C)CC(=O)C(CSc2ccccc2)C(=O)C1`: the T/C by setting is: (dose: 12.5 mg/kg/injection, schedule: Q01DX001 (ip), vehicle: saline) 108 % of control; under setting [1], 100 % of control; (dose: 25.0 mg/kg/injection, schedule: Q01DX001 (ip), vehicle: saline) 111 % of control; (dose: 50.0 mg/kg/injection, schedule: Q01DX001 (ip), vehicle: Klucel (hydroxypropylcellulose) (HPC)) 100 % of control and 105 % of control; (dose: 50.0 mg/kg/injection, schedule: Q01DX001 (ip), vehicle: saline) 112 % of control; under setting [2], 100 % of control.
As to `O=c1[nH]c(=S)[nH]cc1Oc1ccc(Cl)cc1Cl`, the T/C runs as follows: under setting [3], 94 % of control; under setting [4], 93 % of control; under setting [5], 95 % of control; under setting [6], 108 % of control.
For `CC(=O)OC(C)(C)/C=C/C(=O)[C@](C)(O)[C@H]1[C@H](O)C[C@@]2(C)[C@@H]3CC=C4[C@@H](C=C(O)C(=O)C4(C)C)[C@]3(C)C(=O)C[C@]12C`, the T/C (dose: 0.25 mg/kg/injection, schedule: Q01DX009 (ip), vehicle: saline with Tween-80) is 87 % of control; the T/C (dose: 1.0 mg/kg/injection, schedule: Q01DX009 (ip), vehicle: saline with Tween-80) was 91 % of control; the T/C (dose: 1.0 mg/kg/injection, schedule: Q01DX009 (ip), vehicle: saline) is 93 % of control; the T/C (dose: 2.0 mg/kg/injection, schedule: Q01DX009 (ip), vehicle: saline with Tween-80) was 91 % of control; the T/C (dose: 2.0 mg/kg/injection, schedule: Q01DX009 (ip), vehicle: saline) was 94 % of control; the T/C (dose: 4.0 mg/kg/injection, schedule: Q01DX009 (ip), vehicle: saline with Tween-80) was 91 % of control. The T/C is 93 % of control (dose: 4.0 mg/kg/injection, schedule: Q01DX009 (ip), vehicle: saline) and 93 % of control (dose: 8.0 mg/kg/injection, schedule: Q01DX009 (ip), vehicle: saline).
Consider `Cc1nn(C(=O)c2ccncc2)c(C)c1N=Nc1ccc(Cl)cc1`, for which the T/C by setting is: under setting [7], 99 % of control; under setting [8], 91 % of control; under setting [9], 90 % of control.
Turning to `O=C(C(O)C(O)C(O)CO)n1cnc2c1ncn1c(=O)cc(CI)nc21` (configuration not stated), the T/C (dose: 100.0 mg/kg/injection, schedule: Q01DX001 (ip), vehicle: saline with Tween-80) was 105 % of control; the T/C (dose: 200.0 mg/kg/injection, schedule: Q01DX001 (ip), vehicle: saline with Tween-80) was 97 % of control; the T/C (dose: 400.0 mg/kg/injection, schedule: Q01DX001 (ip), vehicle: saline with Tween-80) was 111 % of control.
With `O=C1CN(C(=O)Nc2ccc(Cl)c(Cl)c2)C(=S)N1`, the T/C reads like this: under setting [10], 88 % of control; under setting [11], 101 % of control; under setting [12], 103 % of control and 90 % of control.
Turning to `O=C1c2ccccc2C(=O)c2c(Cl)ccc(O)c21`, the T/C runs as follows: under setting [3], 98 % of control and 94 % of control; under setting [4], 99 % of control and 92 % of control; under setting [5], 104 % of control and 112 % of control; under setting [6], 111 % of control and 112 % of control.
Take `O=C1c2cccc3cccc(c23)C(=O)N1c1ncn[nH]1`: the T/C runs as follows: (dose: 6.25 mg/kg/injection, schedule: Q01DX005 (ip), vehicle: saline with Tween-80) 87 % of control; (dose: 12.5 mg/kg/injection, schedule: Q01DX005 (ip), vehicle: saline with Tween-80) 86 % of control; (dose: 200.0 mg/kg/injection, schedule: Q01DX005 (ip), vehicle: saline with Tween-80) 88 % of control.
On to `CCCCCNc1ncnc2c(C)[nH]nc12`, for which the T/C runs as follows: (dose: 12.5 mg/kg/injection, schedule: Q01DX005 (ip), vehicle: Klucel (hydroxypropylcellulose) (HPC)) 105 % of control; (dose: 25.0 mg/kg/injection, schedule: Q01DX005 (ip), vehicle: Klucel (hydroxypropylcellulose) (HPC)) 98 % of control; under setting [13], 91 % of control; under setting [14], 90 % of control; under setting [15], 90 % of control.
As to `CCCCCCC(=O)CC(SCC(NC(C)=O)C(=O)O)c1ccccc1Cl` (configuration not stated), the T/C by setting is: (dose: 60.0 mg/kg/injection, schedule: Q01DX005 (ip), vehicle: saline) 101 % of control; (dose: 120.0 mg/kg/injection, schedule: Q01DX005 (ip), vehicle: saline) 93 % of control.
For the compound `NC(=O)c1cc([N+](=O)[O-])cc([N+](=O)[O-])c1Cl`, the T/C under setting [10] was 102 % of control.
As to `O=C(OCC(Cl)(Cl)Cl)N1C2C3OC3C(C3OC32)N1C(=O)OCC(Cl)(Cl)Cl` (configuration not stated), the T/C runs as follows: (dose: 50.0 mg/kg/injection, schedule: Q01DX009 (ip), vehicle: suspension in saline) 99 % of control; (dose: 100.0 mg/kg/injection, schedule: Q01DX009 (ip), vehicle: suspension in saline) 92 % of control; (dose: 200.0 mg/kg/injection, schedule: Q01DX009 (ip), vehicle: suspension in saline) 94 % of control.
With `COc1ccc(/C=C/C(C)=O)c(OC)c1`, the T/C reads like this: under setting [2], 108 % of control; (dose: 200.0 mg/kg/injection, schedule: Q01DX001 (ip), vehicle: Klucel (hydroxypropylcellulose) (HPC)) 101 % of control.
In the case of `CC(=O)C1=C(N)OCCC1`, the T/C under setting [7] was 114 % of control, the T/C under setting [8] is 107 % of control and the T/C under setting [9] was 109 % of control.
`CNC(=O)Oc1ncccc1[N+](=O)[O-]`: the T/C reads like this: under setting [7], 98 % of control and 117 % of control; under setting [8], 107 % of control and 119 % of control; under setting [9], 98 % of control and 88 % of control.
For the compound `CCOC(=O)c1cnc(Sc2c([N+](=O)[O-])ncn2C)nc1N`, the T/C under setting [11] was 89 % of control; the T/C under setting [12] was 92 % of control; the T/C under setting [16] was 86 % of control and 91 % of control.
As for `NC(=S)N/N=C/c1ccc(O)cn1`, the T/C is, setting by setting: (dose: 18.8 mg/kg/injection, schedule: Q01DX009 (ip), vehicle: other) 152 % of control and 185 % of control; (dose: 18.8 mg/kg/injection, schedule: Q01DX009 (ip), vehicle: saline with Tween-80) 156 % of control; under setting [1], 118 % of control and 119 % of control; (dose: 25.0 mg/kg/injection, schedule: Q04DX002 (ip), vehicle: Klucel (hydroxypropylcellulose) (HPC)) 113 % of control and 116 % of control; (dose: 25.0 mg/kg/injection, schedule: Q04DX003 (ip), vehicle: Klucel (hydroxypropylcellulose) (HPC)) 115 % of control; (dose: 37.5 mg/kg/injection, schedule: Q01DX009 (ip), vehicle: other) 175 % of control and 221 % of control. For the same compound, the T/C reads like this: (dose: 37.5 mg/kg/injection, schedule: Q01DX009 (ip), vehicle: saline) 172 % of control; (dose: 75.0 mg/kg/injection, schedule: Q01DX009 (ip), vehicle: saline with Tween-80) 173 % of control; (dose: 75.0 mg/kg/injection, schedule: Q01DX009 (ip), vehicle: saline) 160 % of control.
Consider `Cc1cc(O)c(Br)cc1O`, for which the T/C is 100 % of control under setting [13], 97 % of control under setting [14] and 97 % of control under setting [15].
For `Nc1ccc(/C=C\c2nccc3ccccc23)cc1`, the T/C (dose: 3.13 mg/kg/injection, schedule: Q01DX009 (ip), vehicle: saline with Tween-80) is 102 % of control.
`CC1Cn2c(nc3sc4c(c3c2=O)CCCC4)S1` (configuration not stated): the T/C reads like this: under setting [16], 104 % of control; (dose: 100.0 mg/kg/injection, schedule: Q01DX009 (ip), vehicle: Klucel (hydroxypropylcellulose) (HPC)) 97 % of control; (dose: 200.0 mg/kg/injection, schedule: Q01DX009 (ip), vehicle: Klucel (hydroxypropylcellulose) (HPC)) 106 % of control.
Take `CC(C)(C)N1COc2cc3c(cc2C1)OCN(C(C)(C)C)C3`: the T/C was 110 % of control (dose: 12.5 mg/kg/injection, schedule: Q01DX009 (ip), vehicle: saline with Tween-80); 99 % of control (dose: 25.0 mg/kg/injection, schedule: Q01DX009 (ip), vehicle: saline with Tween-80); 108 % of control under setting [3]; 119 % of control under setting [4].
Regarding `Cn1c(C(=O)N/N=C\C2OC3OC(C)(C)OC3C3OC(C)(C)OC23)cc2cc(OCc3ccccc3)ccc21` (configuration not stated), the T/C is 103 % of control under setting [13], 101 % of control under setting [14] and 97 % of control under setting [15].
Turning to `C=CCC1=C(CC)C(=O)c2ccccc2C1=O`, the T/C reads like this: under setting [13], 100 % of control; under setting [14], 100 % of control; under setting [15], 111 % of control.
